According to patent US4503044A, “Antibiotic LL-D05139 β” (American Cyanamid Company, priority 1983, dated 1985):
In brackets after ≈: the same amount, converted by molar mass. Where two headings read alike, the source gives them in different places.

Key:
[1] = tested on: Acinetobacter calcoaceticus; assay: In vitro antibacterial activity, agar dilution; assay type: cell-based; details: 18 h, 35° C., read-out: Minimal Inhibitory Concentration
Protocol: (§1) This antibacterial agent is active in vitro against gram-positive and gram-negative bacteria when tested by the standard agar dilution procedure with Mueller-Hinton agar, and an inoculum of each test organism of approximately 10^4 colony-forming units delivered by a Steers replicating device. The minimal inhibitory concentration (mcg/ml) was defined as the lowest concentration of antibiotic LL-D05139β that inhibited visible growth after 18 hours incubation at 35° C.

Bacillus subtilis = assay: In vitro antibacterial activity, agar dilution; assay type: cell-based; details: ATCC6633; Bacillus subtilis ATCC 6633; Mueller-Hinton agar, 18 hours, 35° C.; read-out: Minimal Inhibitory Concentration
Protocol: as §1

Candida albicans = assay: In vitro antibacterial activity, agar dilution; assay type: cell-based; details: 18 h, 35° C., read-out: Minimal Inhibitory Concentration
Protocol: as §1

Enterobacter aerogenes = assay: In vitro antibacterial activity, agar dilution; assay type: cell-based; details: Klebsiella aerogenes; Enterobacter aerogenes Stfd-79-14; Mueller-Hinton agar, 18 hours, 35° C.; read-out: Minimal Inhibitory Concentration
Protocol: as §1

Enterobacter cloacae = assay: In vitro antibacterial activity, agar dilution; assay type: cell-based; details: Enterobacter cloacae K-79-16; Mueller-Hinton agar, 18 hours, 35° C.; read-out: Minimal Inhibitory Concentration
Protocol: as §1

Enterococcus sp. = assay: In vitro antibacterial activity, agar dilution; assay type: cell-based; details: Mueller-Hinton agar, 18 hours, 35° C.
Protocol: as §1

Escherichia coli = assay: In vitro antibacterial activity, agar dilution; assay type: cell-based; details: 35° C., read-out: Minimal Inhibitory Concentration
Protocol: as §1

Klebsiella pneumoniae = assay: In vitro antibacterial activity, agar dilution; assay type: cell-based; details: 18 h, 35° C., read-out: Minimal Inhibitory Concentration
Protocol: as §1

Micrococcus luteus = assay: In vitro antibacterial activity, agar dilution; assay type: cell-based; details: Micrococcus luteus PCI-1001; Mueller-Hinton agar, 18 hours, 35° C.; read-out: Minimal Inhibitory Concentration
Protocol: as §1

Pasteurella multocida = assay: In vitro antibacterial activity, agar dilution; assay type: cell-based; details: Pasteurella multocida LL #117; Mueller-Hinton agar, 18 hours, 35° C.; read-out: Minimal Inhibitory Concentration
Protocol: as §1

Proteus morganii = assay: In vitro antibacterial activity, agar dilution; assay type: cell-based; details: Morganella morganii; Proteus morganii K-79-25; Mueller-Hinton agar, 18 hours, 35° C.; read-out: Minimal Inhibitory Concentration
Protocol: as §1

Proteus rettgeri = assay: In vitro antibacterial activity, agar dilution; assay type: cell-based; details: Providencia rettgeri; Proteus rettgeri N-76-1; Mueller-Hinton agar, 18 hours, 35° C.; read-out: Minimal Inhibitory Concentration
Protocol: as §1

Providencia stuarti = assay: In vitro antibacterial activity, agar dilution; assay type: cell-based; details: Mueller-Hinton agar, 18 hours, 35° C.
Protocol: as §1

Pseudomonas aeruginosa = assay: In vitro antibacterial activity, agar dilution; assay type: cell-based; details: 35° C., read-out: Minimal Inhibitory Concentration
Protocol: as §1

Salmonella sp. = assay: In vitro antibacterial activity, agar dilution; assay type: cell-based; details: Salmonella sp. QHC-77-3; Mueller-Hinton agar, 18 hours, 35° C.; read-out: Minimal Inhibitory Concentration
Protocol: as §1

Serratia marcescens = assay: In vitro antibacterial activity, agar dilution; assay type: cell-based; details: Serratia marcescens QHC-77-2; Mueller-Hinton agar, 18 hours, 35° C.; read-out: Minimal Inhibitory Concentration
Protocol: as §1

Serratia sp. = assay: In vitro antibacterial activity, agar dilution; assay type: cell-based; details: Serratia sp. TU1-78-15; Mueller-Hinton agar, 18 hours, 35° C.; read-out: Minimal Inhibitory Concentration
Protocol: as §1

Staphylococcus aureus = assay: In vitro antibacterial activity, agar dilution; assay type: cell-based; details: Mueller-Hinton agar, 18 hours, 35° C.; for MIC: read-out: Minimal Inhibitory Concentration
Protocol: as §1

[2] = tested on: lymphocytic leukemia P388; assay: Lymphocytic Leukemia P388 Test; assay type: in vivo; details: DBA/2 mice, efficacy criterion ≥125%
Protocol: The animals used were DBA/2 mice, all of one sex, weighing a minimum of 17 g and all within a 3 g weight range. There were three animals per test group. The tumor transplant was by intraperitoneal injection of 0.1 ml of dilute ascitic fluid containing 10^6 cells of lymphocytic leukemia P388. LL-D05139β was administered intraperitoneally on days 1, 5 and 9 (relative to tumor inoculation) at various doses. The animals were weighed and survivors recorded on a regular basis for 30 days. The ratio of survival time for treated (T)/control (C) animals was calculated. The positive control compound was 5-fluorouracil, given as a 60 mg/kg injection. The criterion for efficacy is T/C×100≥125%.

[3] = tested on: human lung carcinoma (LX-1); assay: Human tumor clonogenic assay, lung carcinoma; assay type: cell-based; details: for T/C / Av. No. of Colonies/Culture: Lung Carcinoma; for T/C: active if T/C ≤30%; for Av. No. of Colonies/Culture: colonies counted after 10-11 days, control 590
Protocol: (§2) This test was performed essentially by the method of A. Hamburger and S. Salmon, Primary bioassay of humor tumor stem cells., Science, 197: 461-463 (1977). Human colon carcinoma (CX-1) and human lung carcinoma (LX-1) tumors were obtained from the National Cancer Institute and propagated in athymic Balb/c mice. Freshly removed tumors were dispersed with trypsin 0.25% and 5×10^4 lung carcinoma cells or 1×10^5 colon carcinoma cells in soft (0.3%) agarose medium containing 0.1 ml of test drug were plated onto a solidified (0.5%) agarose base medium in 35 mm grided dishes. Cultures were incubated at 37° C. in a humidified 5% carbon dioxide in air atmosphere. Colonies were counted after 10-11 days. A compound is considered active if the treated/control (T/C) value is ≤30%, representing a 70% cell kill.

[4] = tested on: human colon carcinoma (CX-1); assay: Human tumor clonogenic assay, colon carcinoma; assay type: cell-based
Protocol: as §2

[5] = Stability in solution as a function of pH; assay type: physicochemical

In the case of C[C@H](N)C(=O)N[C@@H](COC(=O)C=[N+]=[N-])C(=O)O [LL-D05139β, N-L-alanyl-L-serine diazoacetate], the MIC ([1]; Acinetobacter calcoaceticus K-77-1, Mueller-Hinton agar) was 128 µg/mL (≈ 524 µM), the MIC ([1]; Acinetobacter calcoaceticus Stfd-79-17, Mueller-Hinton agar) was 512 µg/mL (≈ 2100 µM) and the MIC (Bacillus subtilis) was 16 µg/mL (≈ 65.5 µM). The MIC (Candida albicans; Candida albicans LL #32, Mueller-Hinton agar) was 64 µg/mL (≈ 262 µM), the MIC (Candida albicans; Candida albicans LL #54, Mueller-Hinton agar) was 128 µg/mL (≈ 524 µM) and the MIC (Enterobacter aerogenes) was 128 µg/mL (≈ 524 µM). The MIC (Enterobacter cloacae) was 128 µg/mL (≈ 524 µM), the MIC (Enterococcus sp.; Enterococcus sp. OSU-75-1, read-out: Minimal Inhibitory Concentration) was 64 µg/mL (≈ 262 µM) and the “Minimal Inhibitory Concentration” value (Enterococcus sp.; Enterococcus sp. SM-77-15) was 64 µg/mL. It also gave an MIC (Escherichia coli; 18 h, Escherichia coli #31, Mueller-Hinton agar) of 4 µg/mL (≈ 16.4 µM), an MIC (Escherichia coli; 18 h, Escherichia coli Stfd-79-20, Mueller-Hinton agar) of 8 µg/mL (≈ 32.8 µM) and an MIC (Escherichia coli; ATCC25922, 18 h, Escherichia coli ATCC 25922, Mueller-Hinton agar) of 8 µg/mL (≈ 32.8 µM). The MIC (Klebsiella pneumoniae; Klebsiella pneumoniae AD, Mueller-Hinton agar) was 4 µg/mL (≈ 16.4 µM), the MIC (Klebsiella pneumoniae; Klebsiella pneumoniae SSC-78-1, Mueller-Hinton agar) was 128 µg/mL (≈ 524 µM) and the MIC (Klebsiella pneumoniae; Klebsiella pneumoniae Stfd-79-6, Mueller-Hinton agar) was 128 µg/mL (≈ 524 µM). It also gave an MIC (Micrococcus luteus) of 4 µg/mL (≈ 16.4 µM), an MIC (Pasteurella multocida) of 64 µg/mL (≈ 262 µM) and an MIC (Proteus morganii) of 64 µg/mL (≈ 262 µM). The MIC (Proteus rettgeri) was 16 µg/mL (≈ 65.5 µM), the “Minimal Inhibitory Concentration” value (Providencia stuarti; Providencia stuarti K-81-29) was 64 µg/mL and the MIC (Providencia stuarti; Providencia stuarti SSC-80-78, read-out: Minimal Inhibitory Concentration) was 64 µg/mL (≈ 262 µM). For the same molecule, the MIC (Pseudomonas aeruginosa; 18 h, Pseudomonas aeruginosa 12-4-4, Mueller-Hinton agar) was 128 µg/mL (≈ 524 µM), the MIC (Pseudomonas aeruginosa; 18 h, Pseudomonas aeruginosa SSC-78-13, Mueller-Hinton agar) was 512 µg/mL (≈ 2100 µM) and the MIC (Pseudomonas aeruginosa; ATCC27853, 18 h, Pseudomonas aeruginosa ATCC 27853, Mueller-Hinton agar) was 128 µg/mL (≈ 524 µM). It also gave an MIC (Salmonella sp.) of 4 µg/mL (≈ 16.4 µM), an MIC (Serratia marcescens) of 32 µg/mL (≈ 131 µM) and an MIC (Serratia sp.) of 64 µg/mL (≈ 262 µM). For the same molecule, the MIC (Staphylococcus aureus; ATCC25923, Staphylococcus aureus ATCC 25923) was 16 µg/mL (≈ 65.5 µM), the “Minimal Inhibitory Concentration” value (Staphylococcus aureus; Staphylococcus aureus FU-79-2) was 16 µg/mL and the MIC (Staphylococcus aureus; Staphylococcus aureus SSC-79-18) was 16 µg/mL (≈ 65.5 µM). The “T/C × 100 (survival time treated/control)” value ([2]; 25 mg/kg intraperitoneally on days 1, 5 and 9) was 140%, the “T/C × 100 (survival time treated/control)” value ([2]; 50 mg/kg intraperitoneally on days 1, 5 and 9) was 150% and the “T/C × 100 (survival time treated/control)” value ([2]; 200 mg/kg intraperitoneally on days 1, 5 and 9) was 140%. For the same molecule, the T/C ([3]; concentration 2 mgc/ml) was 23.2%, the “Av. No. of Colonies/Culture” value ([3]; concentration 2 mgc/ml) was 137 and the T/C ([3]; concentration 20 mgc/ml) was 17.8%. The “Av. No. of Colonies/Culture” value ([3]; concentration 20 mgc/ml) was 105, the T/C ([3]; concentration 200 mgc/ml) was 13.0% and the “Av. No. of Colonies/Culture” value ([3]; concentration 200 mgc/ml) was 78. For the same molecule, the “activity in human tumor clonogenic (stem cell) assay” value ([3]; human lung (LX-1) carcinoma, at 2.0 mcg/ml and higher doses) was “active”, the T/C ([4]; Colon Carcinoma, concentration 2 mgc/ml, active if T/C ≤30%) was 16.0% and the “Av. No. of Colonies/Culture” value ([4]; Colon Carcinoma, concentration 2 mgc/ml, colonies counted after 10-11 days, control 420) was 67. For the same molecule, the “activity in human tumor clonogenic (stem cell) assay” value ([4]; colon (CX-1) carcinoma, at 2.0 mcg/ml and higher doses) was “active”, the stability in acid ([5]; acid, solutions kept between pH 7 and pH 9.5 during isolation) was “poor stability” and the stability ([5]; below pH 5.0) was “Decomposes rapidly”. For the same molecule, the stability ([5]; weakly basic solutions) was “stable”.
